molecular target: human M4 receptor (Homo sapiens (Human), UniProt P08173); assay: Radioligand (tritiated N-methylscopolamine) binding assay, M4; details: Ki against the M4 receptor; membranes from CHO cells expressing human M4; tritiated N-methylscopolamine 1.5 nM; read-out: Ki
Procedure, shortened: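 Ki from displacement of 1.5 nM [3H]N-methylscopolamine on membranes of CHO cells expressing each human receptor. Twelve compound concentrations (10 μM to […]), 90 min at 37° C in 50 mM HEPES, 100 mM NaCl, 5 mM MgCl2, 1 mM EDTA, pH 7.4. Bound ligand was captured by PEI-treated glass-fiber filtration and counted.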

Chain of human M4 receptor (P08173 whole entry): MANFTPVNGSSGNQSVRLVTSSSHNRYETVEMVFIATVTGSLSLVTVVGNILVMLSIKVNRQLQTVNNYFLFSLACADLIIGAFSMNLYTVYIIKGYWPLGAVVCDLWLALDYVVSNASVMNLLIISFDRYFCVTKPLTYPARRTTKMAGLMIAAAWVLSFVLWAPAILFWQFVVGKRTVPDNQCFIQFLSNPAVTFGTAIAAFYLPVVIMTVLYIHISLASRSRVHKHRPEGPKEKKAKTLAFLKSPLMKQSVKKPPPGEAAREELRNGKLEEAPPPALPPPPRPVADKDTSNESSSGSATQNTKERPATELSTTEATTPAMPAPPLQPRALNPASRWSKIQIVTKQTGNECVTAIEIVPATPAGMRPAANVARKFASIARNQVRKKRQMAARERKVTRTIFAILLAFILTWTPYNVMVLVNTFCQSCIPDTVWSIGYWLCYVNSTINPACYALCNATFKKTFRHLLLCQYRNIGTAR

Ki [nM]	SMILES
100 to 1000	O=C(NCCC1CCN(Cc2ccccc2)CC1)C1CCN(c2ccccc2OC(F)(F)F)CC1 [10-70, N-[2-(1-benzylpiperidin-4-yl)ethyl]-1-[2-(trifluoromethoxy)phenyl]piperidine-4-carboxamide]
100 to 1000	O=C(NCCC1CCN(Cc2ccccc2)CC1)[C@H]1CCN(c2ccc(OC(F)(F)F)cc2)C1 [10-71, (3S)-N-[2-(1-benzylpiperidin-4-yl)ethyl]-1-[4-(trifluoromethoxy)phenyl]pyrrolidine-3-carboxamide]
100 to 1000	O=C(NCCC1CCN(Cc2ccccc2)CC1)[C@@H]1CCN(c2ccc(OC(F)(F)F)cc2)C1 [10-72, (3R)-N-[2-(1-benzylpiperidin-4-yl)ethyl]-1-[4-(trifluoromethoxy)phenyl]pyrrolidine-3-carboxamide]
100 to 1000	O=C(NCCC1CCN(Cc2ccccc2)CC1)C1CCN(c2ccc(F)cn2)CC1 [10-73, N-[2-(1-benzylpiperidin-4-yl)ethyl]-1-(5-fluoropyridin-2-yl)piperidine-4-carboxamide]
100 to 1000	Cc1cc(C)nc(N2CCC(C(=O)NCCC3CCN(Cc4ccccc4)CC3)CC2)n1 [10-74, N-[2-(1-benzylpiperidin-4-yl)ethyl]-1-(4,6-dimethylpyrimidin-2-yl)piperidine-4-carboxamide]
100 to 1000	COC1(C(=O)NCCC2CCN(Cc3ccccc3)CC2)CCN(c2ccccc2OC(F)(F)F)CC1 [10-75, N-[2-(1-benzylpiperidin-4-yl)ethyl]-4-methoxy-1-[2-(trifluoromethoxy)phenyl]piperidine-4-carboxamide]
10 to 100	O=C(NCCC1CCN(Cc2ccccc2)CC1)C1CCN(c2ccc(OC(F)F)cc2)CC1 [10-76, N-[2-(1-benzylpiperidin-4-yl)ethyl]-1-[4-(difluoromethoxy)phenyl]piperidine-4-carboxamide]
10 to 100	N#Cc1cccc(N2CCC(C(=O)NCCC3CCN(Cc4ccccc4)CC3)CC2)c1 [10-77, N-[2-(1-benzylpiperidin-4-yl)ethyl]-1-(3-cyanophenyl)piperidine-4-carboxamide]
10 to 100	N#Cc1ccc(N2CCC(C(=O)NCCC3CCN(Cc4ccccc4)CC3)CC2)cc1F [10-78, N-[2-(1-benzylpiperidin-4-yl)ethyl]-1-(4-cyano-3-fluorophenyl)piperidine-4-carboxamide]
10 to 100	O=C(NCCC1CCN(Cc2ccc(O)cc2)CC1)C1CCN(c2ccc(OC(F)(F)F)cc2)CC1 [11-1, N-(2-{1-[(4-hydroxyphenyl)methyl]piperidin-4-yl}ethyl)-1-[4-(trifluoromethoxy)phenyl]piperidine-4-carboxamide]
10 to 100	O=C(NCCC1CCN(Cc2cccnc2F)CC1)c1ccc(Oc2ccccc2)cc1 [11-2, N-(2-{1-[(2-fluoropyridin-3-yl)methyl]piperidin-4-yl}ethyl)-4-phenoxybenzamide]
10 to 100	O=C(NCCC1CCN(Cc2ccccc2O)CC1)c1ccc(OCc2ccccc2)cc1 [11-3, 4-(benzyloxy)-N-(2-{1-[(2-hydroxyphenyl)methyl]piperidin-4-yl}ethyl)benzamide]
100 to 1000	Cc1nc(CN2CCC(CCNC(=O)C3CCN(c4ccc(OC(F)(F)F)cc4)CC3)CC2)cs1 [11-4, N-(2-{1-[(2-methyl-1,3-thiazol-4-yl)methyl]piperidin-4-yl}ethyl)-1-[4-(trifluoromethoxy)phenyl]piperidine-4-carboxamide]
100 to 1000	O=C(NCCC1CCN(Cc2ccccc2O)CC1)c1ccc(Oc2ccccc2)cc1 [11-5, N-(2-{1-[(2-hydroxyphenyl)methyl]piperidin-4-yl}ethyl)-4-phenoxybenzamide]
10 to 100	COC(=O)C(c1ccccc1)N1CCC(CCNC(=O)C2CCN(c3ccc(OC(F)(F)F)cc3)CC2)CC1 (stereo not drawn) [11-6, methyl 2-phenyl-2-{4-[2-({l-[4-(trifluoromethoxy)phenyl]piperidin-4-yl}formamido)ethyl]piperidin-1-yl}acetate]
10 to 100	O=C(NCCC1CCN(Cc2cccc3c2OCCO3)CC1)c1ccc(OCc2ccccc2)cc1 [11-7, 4-(benzyloxy)-N-{2-[1-(2,3-dihydro-1,4-benzodioxin-5-ylmethyl)piperidin-4-yl]ethyl}benzamide]
100 to 1000	N#Cc1ccc(N2CCC(C(=O)NCCC3CCN(CC4CCCCC4)CC3)CC2)nc1 [11-8, 1-(5-cyanopyridin-2-yl)-N-{2-[1-(cyclohexylmethyl)piperidin-4-yl]ethyl}piperidine-4-carboxamide]
100 to 1000	COc1cccc(CN2CCC(CCNC(=O)c3ccc(OCc4ccccc4)cc3)CC2)c1O [11-9, 4-(benzyloxy)-N-(2-{1-[(2-hydroxy-3-methoxyphenyl)methyl]piperidin-4-yl}ethyl)benzamide]
100 to 1000	O=C(NCCC1CCN(Cc2csnn2)CC1)C1CCN(c2ccc(OC(F)(F)F)cc2)CC1 [11-11, N-{2-[1-(1,2,3-thiadiazol-4-ylmethyl)piperidin-4-yl]ethyl}-1-[4-(trifluoromethoxy)phenyl]piperidine-4-carboxamide]

Ki [nM]	SMILES
100 to 1000	O=C(NCCC1CCN(Cc2cccc(O)c2)CC1)c1ccc(Oc2ccccc2)cc1 [11-13, N-(2-{1-[(3-hydroxyphenyl)methyl]piperidin-4-yl}ethyl)-4-phenoxybenzamide]
100 to 1000	CC(c1ccccc1)N1CCC(CCNC(=O)c2ccc(OCc3ccccc3)cc2)CC1 (centres unmarked) [11-14, 4-(benzyloxy)-N-{2-[1-(1-phenylethyl)piperidin-4-yl]ethyl}benzamide]
100 to 1000	Cn1cccc1CN1CCC(CCNC(=O)C2CCN(c3ccc(OC(F)(F)F)cc3)CC2)CC1 [11-15, N-(2-{1-[(1-methyl-1H-pyrrol-2-yl)methyl]piperidin-4-yl}ethyl)-1-[4-(trifluoromethoxy)phenyl]piperidine-4-carboxamide]
100 to 1000	N#Cc1ccc(N2CCC(C(=O)NCCC3CCN(Cc4cccc5c4OCCO5)CC3)CC2)nc1 [11-16, 1-(5-cyanopyridin-2-yl)-N-{2-[1-(2,3-dihydro-1,4-benzodioxin-5-ylmethyl)piperidin-4-yl]ethyl}piperidine-4-carboxamide]
100 to 1000	N#Cc1ccc(N2CCC(C(=O)NCCC3CCN(Cc4ccc(O)cc4)CC3)CC2)nc1 [11-17, 1-(5-cyanopyridin-2-yl)-N-(2-{1-[(4-hydroxyphenyl)methyl]piperidin-4-yl}ethyl)piperidine-4-carboxamide]
100 to 1000	O=C(NCCC1CCN(Cc2cccc3c2OCCO3)CC1)c1ccc(Oc2ccccc2)cc1 [11-18, N-{2-[1-(2,3-dihydro-1,4-benzodioxin-5-ylmethyl)piperidin-4-yl]ethyl}-4-phenoxybenzamide]
100 to 1000	O=C(NCCC1CCN(CC2CCCCC2)CC1)C1CCN(c2ccc(OC(F)(F)F)cc2)CC1 [11-21, N-{2-[1-(cyclohexylmethyl)piperidin-4-yl]ethyl}-1-[4-(trifluoromethoxy)phenyl]piperidine-4-carboxamide]
100 to 1000	O=C(NCCC1CCN(Cc2ccc3[nH]ccc3c2)CC1)C1CCN(c2ccc(OC(F)(F)F)cc2)CC1 [11-22, N-{2-[1-(1H-indol-5-ylmethyl)piperidin-4-yl]ethyl}-1-[4-(trifluoromethoxy)phenyl]piperidine-4-carboxamide]
100 to 1000	O=C(NCC(O)C1CCN(CC2CCCCC2)CC1)C1CCN(c2ccc(OC(F)(F)F)cc2)CC1 (centres unmarked) [11-23, N-{2-[1-(cyclohexylmethyl)piperidin-4-yl]-2-hydroxyethyl}-1-[4-(trifluoromethoxy)phenyl]piperidine-4-carboxamide]
100 to 1000	O=C(NCCC1CCN(Cc2cccc(F)c2)CC1)c1ccc(OCc2ccccc2)cc1 [11-24, 4-(benzyloxy)-N-(2-{1-[(3-fluorophenyl)methyl]piperidin-4-yl}ethyl)benzamide]
100 to 1000	N#Cc1ccc(N2CCC(C(=O)NCCC3CCN(Cc4ccccc4O)CC3)CC2)nc1 [11-25, 1-(5-cyanopyridin-2-yl)-N-(2-{1-[(2-hydroxyphenyl)methyl]piperidin-4-yl}ethyl)piperidine-4-carboxamide]
100 to 1000	N#Cc1ccc(N2CCC(C(=O)NCCC3CCN(Cc4ccccc4O)CC3)CC2)nc1 [11-26, 1-(5-cyanopyridin-2-yl)-N-(2-{1-[(2-hydroxyphenyl)methyl]piperidin-4-yl}ethyl)piperidine-4-carboxamide]
100 to 1000	O=C(NCCC1CCN(Cc2cccc3c2OCC3)CC1)C1CCN(c2ccc(OC(F)(F)F)cc2)CC1 [11-29, N-{2-[1-(2,3-dihydro-1-benzofuran-7-ylmethyl)piperidin-4-yl]ethyl}-1-[4-(trifluoromethoxy)phenyl]piperidine-4-carboxamide]
10 to 100	O=C(OCCC1CCN(Cc2ccccc2)CC1)N1CCN(c2ccc(OC(F)(F)F)cc2)CC1 [12-1, 2-(1-benzylpiperidin-4-yl)ethyl 4-[4-(trifluoromethoxy)phenyl]piperazine-1-carboxylate]
100 to 1000	N#Cc1cccc(N2CCN(C(=O)OCCC3CCN(Cc4ccccc4)CC3)CC2)c1 [12-2, 2-(1-benzylpiperidin-4-yl)ethyl 4-(3-cyanophenyl)piperazine-1-carboxylate]
100 to 1000	O=C(OCCC1CCN(Cc2ccccc2)CC1)N1CCN(c2ccc(F)cc2)CC1 [12-3, 2-(1-benzylpiperidin-4-yl)ethyl 4-(4-fluorophenyl)piperazine-1-carboxylate]
10 to 100	O=C(OCCC1CCN(Cc2ccccc2)CC1)N1CCN(c2cccc(OC(F)(F)F)c2)CC1 [12-4, 2-(1-benzylpiperidin-4-yl)ethyl 4-[3-(trifluoromethoxy)phenyl]piperazine-1-carboxylate]
100 to 1000	N#Cc1cccc(N2CCC(NC(=O)OCCC3CCN(Cc4ccccc4)CC3)CC2)c1 [12-5, 2-(1-benzylpiperidin-4-yl)ethyl N-[1-(3-cyanophenyl)piperidin-4-yl]carbamate]

SMILES	Ki [nM]
COc1cccc(CN2CCC(CCNC(=O)C3CCN(c4ccc(OC(F)(F)F)cc4)CC3)CC2)n1 [11-30, N-(2-{l-[(6-methoxypyridin-2-yl)methyl]piperidin-4-yl}ethyl)-1-[4-(trifluoromethoxy)phenyl]piperidine-4-carboxamide]	100 to 1000

Reference: patent US11033539B2, “Compounds of formulas (VII), (VIII), (IX), (XI), (XII), (XIII), and (XIV) as muscarinic receptor 4(M4) antagonists for treating neurological diseases” (Neurocrine Biosciences, Inc., priority 2015, dated 2021)
